Measurements: ChEMBL document CHEMBL6114939, “Identification of Dual Inhibitors Targeting Main Protease (Mpro) and Cathepsin L as Potential Anti-SARS-CoV-2 Agents” (ACS Med Chem Lett, 2024)

Assays:
[1] = test system: Severe acute respiratory syndrome coronavirus 2; experiment: Inhibition of N-terminal sumo/his-6 tagged SARS CoV-2 MPro (3264 to 3569 residues) extracted from Escherichia coli BL21 Gold (DE3) cells assessed as residual activity using Dabcyl-KTSAVLQSGFRKMEE-dans as substrate at 1 uM incubated for 10 mins by FRET assay relative to control
[2] = biological target: T1, Procathepsin L (Homo sapiens, UniProt P07711); experiment: Inhibition of human Cathepsin L assessed as residual activity using Cbz-FR-AMC as substrate at 1 uM preincubated for 20 mins at room temperature followed by substrate addition and measured after 10 mins by FRET assay; conditions: time 30.0 min
Target sequence in this assay (P07711 114-333 limits assumed): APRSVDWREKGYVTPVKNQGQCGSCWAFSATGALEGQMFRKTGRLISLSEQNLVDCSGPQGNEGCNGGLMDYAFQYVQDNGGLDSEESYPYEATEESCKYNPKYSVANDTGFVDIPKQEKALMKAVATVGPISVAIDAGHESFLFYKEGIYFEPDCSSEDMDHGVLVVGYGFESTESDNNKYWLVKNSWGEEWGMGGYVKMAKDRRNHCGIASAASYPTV

[3] = biological target: Cathepsin S (Homo sapiens, UniProt P25774); experiment: Binding affinity to human Cathepsin S assessed as inhibition constant using Cbz-VVR-AMC as substrate preincubated for 20 mins at room temperature followed by substrate addition and measured after 10 mins by FRET assay
[4] = Binding affinity to N-terminal sumo/his-6 tagged SARS CoV-2 MPro (3264 to 3569 residues) extracted from Escherichia coli BL21 Gold (DE3) cells assessed as inhibition constant using Dabcyl-KTSAVLQSGFRKMEE-dans as substrate incubated for 10 mins by FRET assay; design: species or system Severe acute respiratory syndrome coronavirus 2
[5] = biological target: T1, Procathepsin L; experiment: Binding affinity to human Cathepsin L assessed as inhibition constant using Cbz-FR-AMC as substrate preincubated for 20 mins at room temperature followed by substrate addition measured after 10 mins by FRET assay
Target sequence in this assay (P07711 whole entry): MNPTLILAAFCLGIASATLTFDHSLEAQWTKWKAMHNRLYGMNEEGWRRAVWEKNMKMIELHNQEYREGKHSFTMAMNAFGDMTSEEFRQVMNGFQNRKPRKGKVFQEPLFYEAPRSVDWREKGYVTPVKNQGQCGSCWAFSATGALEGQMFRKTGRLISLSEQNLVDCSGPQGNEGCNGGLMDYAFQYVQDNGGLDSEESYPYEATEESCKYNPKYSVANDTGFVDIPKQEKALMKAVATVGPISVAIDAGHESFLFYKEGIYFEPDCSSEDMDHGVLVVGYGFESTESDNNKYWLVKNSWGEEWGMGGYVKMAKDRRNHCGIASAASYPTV

[6] = test system: Huh-7; experiment: Cytotoxicity against human Huh-7 cells overexpressing human ACE2 incubated for 24 hrs by MTT assay; format: functional
[7] = biological target: Cathepsin B (Homo sapiens, UniProt P07858); experiment: Binding affinity to human Cathepsin B assessed as inhibition constant using Cbz-FR-AMC as substrate preincubated for 20 mins at room temperature followed by substrate addition and measured after 10 mins by FRET assay

Chain of Cathepsin S (P25774 whole entry, the tested form may be a part): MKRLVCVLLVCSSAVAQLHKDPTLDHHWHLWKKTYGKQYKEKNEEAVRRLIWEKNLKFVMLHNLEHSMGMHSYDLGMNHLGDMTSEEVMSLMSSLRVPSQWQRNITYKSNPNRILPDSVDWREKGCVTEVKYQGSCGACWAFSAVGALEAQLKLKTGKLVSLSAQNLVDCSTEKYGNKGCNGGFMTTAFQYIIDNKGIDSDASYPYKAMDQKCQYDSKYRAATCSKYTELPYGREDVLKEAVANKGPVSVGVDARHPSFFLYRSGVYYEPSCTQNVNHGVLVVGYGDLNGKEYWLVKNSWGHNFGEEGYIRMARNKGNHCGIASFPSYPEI

For `CCCC[C@H](NC(=O)c1cccc(F)c1)C(=O)N[C@H](/C=C/C(C)=O)C[C@@H]1CCNC1=O`, the Activity [1] was 86% and the Activity [2] was 6.81%.
Work on `CC(=O)/C=C/[C@H](C[C@@H]1CCNC1=O)NC(=O)[C@H](CC(C)C)NC(=O)c1cccc(F)c1` yielded an Activity [1] of 99.5% and an Activity [2] of 10.9%.
Work on `CC(=O)/C=C/[C@H](C[C@@H]1CCNC1=O)NC(=O)[C@H](CC(C)(C)C)NC(=O)c1ccc(F)cc1` yielded a Ki [3] of 0.7 nM, an Activity [1] of 68.8% and a Ki [4] of 5.54 µM. The Activity [2] was 45.1%, the Ki [5] was 701 nM and the CC50 [6] was over 100 µM. For the same compound, the Ki [7] was 7.7 µM.
With `CC(=O)/C=C/[C@H](C[C@@H]1CCNC1=O)NC(=O)[C@H](CC(C)(C)C)NC(=O)c1cccc(F)c1` the Activity [1] was 77% and the Activity [2] was 34.7%.
`CC(=O)/C=C/[C@H](C[C@@H]1CCNC1=O)NC(=O)[C@H](CC1CCCCC1)NC(=O)c1cccc(F)c1` gave an Activity [1] of 64.2%, a Ki [4] of 3.66 µM and an Activity [2] of 3.6%. The Ki [5] was 4 nM and the CC50 [6] was 22.6 µM.
`CC(=O)/C=C/[C@H](C[C@@H]1CCNC1=O)NC(=O)[C@H](CC1CC1)NC(=O)c1ccccc1F` showed a Ki [3] of 95.4 nM, an Activity [1] of 57.9% and a Ki [4] of 2.95 µM. It also gave an Activity [2] of 23.2%, a Ki [5] of 294 nM and a CC50 [6] of over 100 µM.
`CCC[C@H](NC(=O)c1ccccc1F)C(=O)N[C@H](/C=C/C(C)=O)C[C@@H]1CCNC1=O` gave an Activity [1] of 101% and an Activity [2] of 12%.
With `CC(=O)/C=C/[C@H](C[C@@H]1CCNC1=O)NC(=O)[C@H](CC(C)(C)C)NC(=O)c1ccccc1F` the Activity [1] was 89.4% and the Activity [2] was 33.5%.
In the case of `CC(=O)/C=C/[C@H](C[C@@H]1CCNC1=O)NC(=O)[C@H](CC1CC1)NC(=O)c1cccc(F)c1`, the Activity [1] is reported as 92.7% and the Activity [2] is reported as 9.76%.
For `CC(=O)/C=C/[C@H](C[C@@H]1CCNC1=O)NC(=O)[C@H](CC1CCCCC1)NC(=O)c1ccc(F)cc1`, the Activity [1] was 68.2%, the Ki [4] was 3.14 µM and the Activity [2] was 5%. The Ki [5] was 17 nM and the CC50 [6] was 46.9 µM.
With `CCCC[C@H](NC(=O)c1ccc(F)cc1)C(=O)N[C@H](/C=C/C(C)=O)C[C@@H]1CCNC1=O` the Activity [1] was 58.8%, the Ki [4] was 10.7 µM and the Activity [2] was 15.2%. The Ki [5] was 141 nM and the CC50 [6] was over 100 µM.
`CCCC[C@H](NC(=O)c1ccccc1F)C(=O)N[C@H](/C=C/C(C)=O)C[C@@H]1CCNC1=O` gave an Activity [1] of 98.7% and an Activity [2] of 8.66%.
`CCC[C@H](NC(=O)c1cccc(F)c1)C(=O)N[C@H](/C=C/C(C)=O)C[C@@H]1CCNC1=O` showed an Activity [1] of 101% and an Activity [2] of 8.61%.
For `CC(=O)/C=C/[C@H](C[C@@H]1CCNC1=O)NC(=O)[C@H](CC1CC1)NC(=O)c1ccc(F)cc1`, the Activity [1] was 83.7% and the Activity [2] was 26.8%.
In the case of `CC(=O)/C=C/[C@H](C[C@@H]1CCNC1=O)NC(=O)[C@H](CC1CCCCC1)NC(=O)c1ccccc1F`, the Activity [1] is reported as 56.3%, the Ki [4] is reported as 1.61 µM and the Activity [2] is reported as 3.4%. The Ki [5] was 12 nM and the CC50 [6] was 12.6 µM.
`CC(=O)/C=C/[C@H](C[C@@H]1CCNC1=O)NC(=O)[C@H](CC(C)C)NC(=O)c1ccc(F)cc1` gave a Ki [3] of 6.23 nM, an Activity [1] of 64.9% and a Ki [4] of 5.58 µM. For the same compound, the Activity [2] was 5.8%, the Ki [5] was 20 nM and the CC50 [6] was over 100 µM. For the same compound, the Ki [7] was 10.9 µM.
For `CCOC(=O)/C=C/[C@H](C[C@@H]1CCNC1=O)NC(=O)[C@H](Cc1ccccc1)NC(=O)[C@@H](Cc1ccc(F)cc1)NC(=O)OC(C)(C)C`, the Ki [4] was 1.8 µM and the Ki [5] was 145 nM.
`CC(=O)/C=C/[C@H](C[C@@H]1CCNC1=O)NC(=O)[C@H](CC(C)C)NC(=O)c1ccccc1F` showed an Activity [1] of 88.7% and an Activity [2] of 5.3%.
`CCC[C@H](NC(=O)c1ccc(F)cc1)C(=O)N[C@H](/C=C/C(C)=O)C[C@@H]1CCNC1=O` showed an Activity [1] of 96.5% and an Activity [2] of 19.1%.
